Reference: publication PMC9377102, “Toxicity and toxicokinetics of the ethanol extract of Zuojin formula” (BMC Complementary Medicine and Therapies, 2022)
Where two headings read alike, the source gives them in different places.

How the values were obtained:
[1] = test system: CYP3A4, CYP1A2 and CYP2D6; conditions: cited from earlier work
[2] = Toxicokinetics test in the satellite groups (UPLC-MS/MS of rat plasma); assay type: in vivo; conditions: for AUC(0-t) / Cmax / Tmax / half-life: SD, rat, plasma, po; for half-life: read-out: T1/2 mean (converted)
Method: SD rats (5 ~ 6 weeks, 3/group/sex) were randomly allocated to three treatment groups and given the same dosage as those in the repeated toxicity experiment for 28 days. […] Carbamazepine was chosen as the internal standard (IS). The blood samples were centrifuged to obtain plasma. Then, 300 μL of acetonitrile containing 40 ng of IS was added to 100 μL of plasma. After vortexing for 1 min, the mixture was centrifuged at 17,000 rpm for 15 min at 4 °C. The supernatant of each sample was injected into a UPLC–MS/MS system for determination. The injection volume was 1 μL. UPLC–MS analysis was performed on a Thermo Fisher Scientific Ultimate 3000 UPLC system (San Jose, USA) and an API 4000 QTRAP mass spectrometer (Foster City, USA) equipped with an ESI source. The mobile phase consisted of 2 solvents: (A) water containing 0.1% formic acid and (B) 100% acetonitrile. For MS, multiple reaction monitoring (MRM) in positive ion mode was used as the scanning mode for the main components and IS in the plasma samples. The dwell time (DT), collision energy (CE), quadrupole 1 pre-rod bias (Q1) and quadrupole 3 pre-rod bias (Q3) are listed in Table 3.

[3] = female, female rats, Day 1, highest dose (berberine 72.08, epiberberine 7.42, coptisine 7.42, palmatine 18.26, jatrorrhizine 2.80, columbamine 5.93 mg/kg)
[4] = female, female rats, Day 1, middle dose (berberine 24.03, epiberberine 2.47, coptisine 2.47, palmatine 6.09, jatrorrhizine 0.93, columbamine 1.98 mg/kg)
[5] = female, female rats, Day 28, highest dose (berberine 72.08, epiberberine 7.42, coptisine 7.42, palmatine 18.26, jatrorrhizine 2.80, columbamine 5.93 mg/kg)
[6] = female, female rats, Day 28, lowest dose (berberine 8.01, epiberberine 0.82, coptisine 1.38, palmatine 2.03, jatrorrhizine 0.31, columbamine 0.66 mg/kg)
[7] = female, female rats, Day 28, middle dose (berberine 24.03, epiberberine 2.47, coptisine 2.47, palmatine 6.09, jatrorrhizine 0.93, columbamine 1.98 mg/kg)
[8] = male, male rats, Day 1, lowest dose (berberine 8.01, epiberberine 0.82, coptisine 1.38, palmatine 2.03, jatrorrhizine 0.31, columbamine 0.66 mg/kg)
[9] = male, male rats, Day 1, middle dose (berberine 24.03, epiberberine 2.47, coptisine 2.47, palmatine 6.09, jatrorrhizine 0.93, columbamine 1.98 mg/kg)
[10] = male, male rats, Day 28, highest dose (berberine 72.08, epiberberine 7.42, coptisine 7.42, palmatine 18.26, jatrorrhizine 2.80, columbamine 5.93 mg/kg)
[11] = male, male rats, Day 28, lowest dose (berberine 8.01, epiberberine 0.82, coptisine 1.38, palmatine 2.03, jatrorrhizine 0.31, columbamine 0.66 mg/kg)
[12] = male, male rats, Day 28, middle dose (berberine 24.03, epiberberine 2.47, coptisine 2.47, palmatine 6.09, jatrorrhizine 0.93, columbamine 1.98 mg/kg)

COc1cc2c(cc1O)CC[n+]1cc3c(OC)c(OC)ccc3cc1-2 [jatrorrhizine]
Metabolism by CYP3A4, CYP1A2 and CYP2D6 [1]: metabolized
AUC(0-t) ([2]; female, 0.4 g/kg, female rats, Day 1, low dose TAZF 0.4 g/kg by gavage, read-out: AUC0-t): 25.6 ± 30 ng·h/mL
Cmax ([2]; female, 0.4 g/kg, female rats, Day 1, low dose TAZF 0.4 g/kg by gavage, read-out: Cmax): 11 ± 7.79 ng/mL
AUC(0-t) ([2]; female, 0.4 g/kg, female rats, Day 28, low dose TAZF 0.4 g/kg by gavage, read-out: AUC0-t): 23.9 ± 27.7 ng·h/mL
Cmax ([2]; female, 0.4 g/kg, female rats, Day 28, low dose TAZF 0.4 g/kg by gavage, read-out: Cmax): 11.2 ± 15 ng/mL
AUC(0-t) ([2]; female, 3.7 g/kg, female rats, Day 1, high dose TAZF 3.7 g/kg by gavage, read-out: AUC0-t): 22.1 ± 4.83 ng·h/mL
Cmax ([2]; female, 3.7 g/kg, female rats, Day 1, high dose TAZF 3.7 g/kg by gavage, read-out: Cmax): 14.8 ± 10.7 ng/mL
AUC(0-t) ([2]; female, 3.7 g/kg, female rats, Day 28, high dose TAZF 3.7 g/kg by gavage, read-out: AUC0-t): 11.4 ± 1.79 ng·h/mL
Cmax ([2]; female, 3.7 g/kg, female rats, Day 28, high dose TAZF 3.7 g/kg by gavage, read-out: Cmax): 2.08 ± 0.41 ng/mL
Tmax [2, 3]: 0.5 h
AUC(0-t) ([2]; female, female rats, Day 1, highest dose (berberine 72.08, epiberberine 7.42, coptisine 7.42, palmatine 18.26, jatrorrhizine 2.80, columbamine 5.93 mg/kg), read-out: AUC0-t mean): 22.1 ng·h/mL
Cmax ([2]; female, female rats, Day 1, highest dose (berberine 72.08, epiberberine 7.42, coptisine 7.42, palmatine 18.26, jatrorrhizine 2.80, columbamine 5.93 mg/kg), read-out: Cmax mean): 14.8 ng/mL
half-life [2, 3]: 3.96 h
AUC(0-t) ([2]; female, female rats, Day 1, lowest dose (berberine 8.01, epiberberine 0.82, coptisine 1.38, palmatine 2.03, jatrorrhizine 0.31, columbamine 0.66 mg/kg), read-out: AUC0-t mean): 25.6 ng·h/mL
Cmax ([2]; female, female rats, Day 1, lowest dose (berberine 8.01, epiberberine 0.82, coptisine 1.38, palmatine 2.03, jatrorrhizine 0.31, columbamine 0.66 mg/kg), read-out: Cmax mean): 11 ng/mL
half-life ([2]; female, female rats, Day 1, lowest dose (berberine 8.01, epiberberine 0.82, coptisine 1.38, palmatine 2.03, jatrorrhizine 0.31, columbamine 0.66 mg/kg)): 2.64 h
Tmax [2, 4]: 0.83 h
AUC(0-t) ([2]; female, female rats, Day 1, middle dose (berberine 24.03, epiberberine 2.47, coptisine 2.47, palmatine 6.09, jatrorrhizine 0.93, columbamine 1.98 mg/kg), read-out: AUC0-t mean): 19.9 ng·h/mL
Cmax ([2]; female, female rats, Day 1, middle dose (berberine 24.03, epiberberine 2.47, coptisine 2.47, palmatine 6.09, jatrorrhizine 0.93, columbamine 1.98 mg/kg), read-out: Cmax mean): 14.6 ng/mL
half-life [2, 4]: 3.57 h
Tmax [2, 5]: 1.33 h
AUC(0-t) ([2]; female, female rats, Day 28, highest dose (berberine 72.08, epiberberine 7.42, coptisine 7.42, palmatine 18.26, jatrorrhizine 2.80, columbamine 5.93 mg/kg), read-out: AUC0-t mean): 11.4 ng·h/mL
Cmax ([2]; female, female rats, Day 28, highest dose (berberine 72.08, epiberberine 7.42, coptisine 7.42, palmatine 18.26, jatrorrhizine 2.80, columbamine 5.93 mg/kg), read-out: Cmax mean): 2.08 ng/mL
half-life [2, 5]: 4.98 h
Tmax [2, 6]: 4.17 h
AUC(0-t) ([2]; female, female rats, Day 28, lowest dose (berberine 8.01, epiberberine 0.82, coptisine 1.38, palmatine 2.03, jatrorrhizine 0.31, columbamine 0.66 mg/kg), read-out: AUC0-t mean): 23.9 ng·h/mL
Cmax ([2]; female, female rats, Day 28, lowest dose (berberine 8.01, epiberberine 0.82, coptisine 1.38, palmatine 2.03, jatrorrhizine 0.31, columbamine 0.66 mg/kg), read-out: Cmax mean): 11.2 ng/mL
half-life [2, 6]: 3.39 h
Tmax [2, 7]: 1 h
AUC(0-t) ([2]; female, female rats, Day 28, middle dose (berberine 24.03, epiberberine 2.47, coptisine 2.47, palmatine 6.09, jatrorrhizine 0.93, columbamine 1.98 mg/kg), read-out: AUC0-t mean): 3.87 ng·h/mL
Cmax ([2]; female, female rats, Day 28, middle dose (berberine 24.03, epiberberine 2.47, coptisine 2.47, palmatine 6.09, jatrorrhizine 0.93, columbamine 1.98 mg/kg), read-out: Cmax mean): 1.29 ng/mL
half-life [2, 7]: 5.33 h
T1/2 mean ([2]; male rats, Day 1, highest dose (berberine 72.08, epiberberine 7.42, coptisine 7.42, palmatine 18.26, jatrorrhizine 2.80, columbamine 5.93 mg/kg)): 9.68 h
AUC(0-t) ([2]; male, 0.4 g/kg, male rats, Day 1, low dose TAZF 0.4 g/kg by gavage, read-out: AUC0-t): 52 ± 20.4 ng·h/mL
Cmax ([2]; male, 0.4 g/kg, male rats, Day 1, low dose TAZF 0.4 g/kg by gavage, read-out: Cmax): 11.8 ± 10.8 ng/mL
AUC(0-t) ([2]; male, 0.4 g/kg, male rats, Day 28, low dose TAZF 0.4 g/kg by gavage, read-out: AUC0-t): 8.62 ± 3.21 ng·h/mL
Cmax ([2]; male, 0.4 g/kg, male rats, Day 28, low dose TAZF 0.4 g/kg by gavage, read-out: Cmax): 16.4 ± 16 ng/mL
AUC(0-t) ([2]; male, 3.7 g/kg, male rats, Day 1, high dose TAZF 3.7 g/kg by gavage, read-out: AUC0-t): 101 ± 35.3 ng·h/mL
Cmax ([2]; male, 3.7 g/kg, male rats, Day 1, high dose TAZF 3.7 g/kg by gavage, read-out: Cmax): 17.7 ± 11 ng/mL
AUC(0-t) ([2]; male, 3.7 g/kg, male rats, Day 28, high dose TAZF 3.7 g/kg by gavage, read-out: AUC0-t): 25.6 ± 6.74 ng·h/mL
Cmax ([2]; male, 3.7 g/kg, male rats, Day 28, high dose TAZF 3.7 g/kg by gavage, read-out: Cmax): 7.97 ± 7.64 ng/mL
Tmax ([2]; male, male rats, Day 1, highest dose (berberine 72.08, epiberberine 7.42, coptisine 7.42, palmatine 18.26, jatrorrhizine 2.80, columbamine 5.93 mg/kg)): 4 h
AUC(0-t) ([2]; male, male rats, Day 1, highest dose (berberine 72.08, epiberberine 7.42, coptisine 7.42, palmatine 18.26, jatrorrhizine 2.80, columbamine 5.93 mg/kg), read-out: AUC0-t mean): 101 ng·h/mL
Cmax ([2]; male, male rats, Day 1, highest dose (berberine 72.08, epiberberine 7.42, coptisine 7.42, palmatine 18.26, jatrorrhizine 2.80, columbamine 5.93 mg/kg), read-out: Cmax mean): 17.7 ng/mL
Tmax [2, 8]: 10 h
AUC(0-t) ([2]; male, male rats, Day 1, lowest dose (berberine 8.01, epiberberine 0.82, coptisine 1.38, palmatine 2.03, jatrorrhizine 0.31, columbamine 0.66 mg/kg), read-out: AUC0-t mean): 52 ng·h/mL
Cmax ([2]; male, male rats, Day 1, lowest dose (berberine 8.01, epiberberine 0.82, coptisine 1.38, palmatine 2.03, jatrorrhizine 0.31, columbamine 0.66 mg/kg), read-out: Cmax mean): 11.8 ng/mL
half-life [2, 8]: 52.9 h
Tmax [2, 9]: 1.83 h
AUC(0-t) ([2]; male, male rats, Day 1, middle dose (berberine 24.03, epiberberine 2.47, coptisine 2.47, palmatine 6.09, jatrorrhizine 0.93, columbamine 1.98 mg/kg), read-out: AUC0-t mean): 74.5 ng·h/mL
Cmax ([2]; male, male rats, Day 1, middle dose (berberine 24.03, epiberberine 2.47, coptisine 2.47, palmatine 6.09, jatrorrhizine 0.93, columbamine 1.98 mg/kg), read-out: Cmax mean): 15.4 ng/mL
half-life [2, 9]: 68 h
Tmax [2, 10]: 1.17 h
AUC(0-t) ([2]; male, male rats, Day 28, highest dose (berberine 72.08, epiberberine 7.42, coptisine 7.42, palmatine 18.26, jatrorrhizine 2.80, columbamine 5.93 mg/kg), read-out: AUC0-t mean): 25.6 ng·h/mL
Cmax ([2]; male, male rats, Day 28, highest dose (berberine 72.08, epiberberine 7.42, coptisine 7.42, palmatine 18.26, jatrorrhizine 2.80, columbamine 5.93 mg/kg), read-out: Cmax mean): 7.97 ng/mL
half-life [2, 10]: 4.48 h
Tmax [2, 11]: 0.83 h
AUC(0-t) ([2]; male, male rats, Day 28, lowest dose (berberine 8.01, epiberberine 0.82, coptisine 1.38, palmatine 2.03, jatrorrhizine 0.31, columbamine 0.66 mg/kg), read-out: AUC0-t mean): 8.62 ng·h/mL
Cmax ([2]; male, male rats, Day 28, lowest dose (berberine 8.01, epiberberine 0.82, coptisine 1.38, palmatine 2.03, jatrorrhizine 0.31, columbamine 0.66 mg/kg), read-out: Cmax mean): 16.4 ng/mL
half-life [2, 11]: 11.1 h
Tmax [2, 12]: 12 h
AUC(0-t) ([2]; male, male rats, Day 28, middle dose (berberine 24.03, epiberberine 2.47, coptisine 2.47, palmatine 6.09, jatrorrhizine 0.93, columbamine 1.98 mg/kg), read-out: AUC0-t mean): 33.3 ng·h/mL
Cmax ([2]; male, male rats, Day 28, middle dose (berberine 24.03, epiberberine 2.47, coptisine 2.47, palmatine 6.09, jatrorrhizine 0.93, columbamine 1.98 mg/kg), read-out: Cmax mean): 7.78 ng/mL
half-life [2, 12]: 2.72 h
Systemic exposure after 28 days of administration vs single administration ([2]; rats, oral TAZF): much lower
